According to patent publication US20130078718A1, “CONVERSION OF VASCULAR ENDOTHELIAL CELLS INTO MULTIPOTENT STEM-LIKE CELLS” (PRESIDENT AND FELLOWS OF HARVARD COLLEGE, priority 2010, published 2013):
Entries after “also recorded” stand apart in the source; their conditions may differ.

Experiments:
[1] = system: Human umbilical vein endothelial cells (HUVECs) and human cutaneous microvascular endothelial cells (HCMECs); assay: Endothelial-mesenchymal transition (EndMT) in endothelial cells: morphology, marker expression by immunoblotting, flow cytometry, real-time PCR, ELISA; type: cell-based; settings: for FSP-1, α-SMA, and N-cadherin levels (immunoblotting) / VE-cadherin, CD31, and vWF levels (immunoblotting): 10 ng ml−1, 48 h; for EndMT-associated transcription factors Snail, Slug, ZEB-1, SIP-1, LEF-1, Twist (ELISA): 10 ng ml−1, compared to control cells; for FSP-1 and α-SMA levels (immunoblotting) / TIE-2 expression levels (immunoblotting) / VE-cadherin levels (immunoblotting) / co-staining for endothelial marker TIE2 and mesenchymal marker FSP-1 (fluorescence microscopy or flow cytometry) / expression of genes associated with EndMT (FSP-1, α-SMA, N-cadherin, fibronectin, Snail, Slug, ZEB-1, SIP-1, LEF-1, Twist), real-time quantitative PCR / cell morphology (DIC imaging): 10 ng/mL, 48 hours; for expression of genes associated with EndMT (FSP-1, α-SMA, N-cadherin, fibronectin, Snail, Slug, ZEB-1, SIP-1, LEF-1, Twist), real-time quantitative PCR: compared to control cells; for cell morphology (DIC imaging): serum free medium
Method: Human umbilical vein endothelial cells (HUVEC) and human cutaneous microvascular endothelial cells (HCMEC) were provided by J. Bischoff (Children's Hospital Boston) and isolated as previously described^35. […] Cells were grown in culture using EGM-2 medium (Cambrex), containing 10% FBS and 1% Penicillin/Streptomycin, followed by human endothelial serum free medium (Gibco) 24 hours prior to all experimental conditions. Bone marrow derived mesenchymal stem cells (ScienCell Research Laboratories) were grown in mesenchymal stem cell medium (ScienCell Research Laboratories). Human corneal fibroblasts, from a stock initially provided by E. Hay (Harvard Medical School), were grown in RPMI medium, containing 10% FBS and 1% Penicillin/Streptomycin. Primary human osteoblasts, chondrocytes, and adipocytes and their respective growth media were obtained from Cell Applications Inc. Recombinant TGF-β2 and BMP4 proteins (R&D Systems) were added to the serum free culture medium for all relevant experiments at a concentration of 10 ng/mL. Cells were treated for 15 minutes to assess ALK2 phosphorylation, 1 hour to measure Smad5 phosphorylation, or 48 hours to induce EndMT. All experiments for this study were performed at minimum in triplicate.
Immunoassays were performed using the following antibodies at concentrations (and using protocols) recommended by the respective manufacturers: FSP-1 (H00006275-M01; Stressgen), ALK2 (sc-5671), Phospho-tyrosine (sc-7020), VE-cadherin (sc-6458), TIE2 (sc-324, sc-9026), STRO-1 (sc-47733), CD44 (sc-71220), CD90 (sc-9163), Osteocalcin (sc-74495, sc-23790), SOX9 (sc-20095), COL2A1 (sc-59958, sc-52658), PPARγ2 (sc-22022; Santa Cruz Biotechnology), vWF (ab68545; Abcam); His (A00174; GenScript); α-SMA (A5228), β-actin (A1978; Sigma-Aldrich). Samples were run with Criterion precast SDS-PAGE Gels (Bio-Rad). HRP-conjugated IgG TrueBlot reagents (18-8814, 18-8816, 18-8817; eBioscience) were used at a dilution of 1:1000. TrueBlot IgG beads (eBioscience) were used for immunoprecipitation experiments. Alexa Fluor secondary antibodies (Invitrogen) were used at a dilution of 1:200. Images were acquired using a Nikon 80i fluorescence microscope.
Endothelial cells were stained in suspension using antibodies against TIE2, FSP-1, STRO-1, and His (described above) and the protocols provided by their respective manufacturer. Flow cytometry was performed at the Harvard Medical School, Department of Pathology flow cytometry core facility using a FACSDCalibur (BD Biosciences) cell sorter isolating 30,000 cells per sample.
RNA extractions were performed using the RNeasy Mini kit (Qiagen) and protocol. RNA samples were submitted to a core facility (Biopolymers Facility, Department of Genetics, Harvard Medical School) where real-time PCR experiments were conducted using the Syber Green PCR system (ABI) on an ABI 7500 cycler, with 40 cycles per sample. Cycling temperatures were as follows: denaturing 95° C.; annealing 60° C.; extension, 70° C. The following primers (Integrated DNA Technologies) were used: […]
Human umbilical vein endothelial cells (HUVEC) and human cutaneous microvascular endothelial cells (HCMEC) isolated as previously described (35). […] Cells were grown in culture using EGM-2 medium (Cambrex), containing 10% FBS and 1% Penicillin/Streptomycin, followed by human endothelial serum free medium (Gibco) 24 h prior to all experimental conditions.

[2] = system: human cutaneous microvascular endothelial cells (HCMEC); assay: Differentiation into myocytes, cardiomyocytes and neurons (immunoblotting); type: cell-based; settings: 10 ng/ml, 48 hours, then myogenic, cardiomyogenic or neurogenic medium 14 days
Method: Cardiomyogenic medium was purchased from Millipore Inc., (SCM-102).
Myogenic medium consisted of human endothelial serum-free medium supplemented with 5% horse serum, 0.1 μM dexamethasone, and 50 μM hydrocortisone (previously described by Gang et al, 2004).
Neurogenic medium consisted human endothelial serum-free medium supplemented with 100 ng/ml bFGF (previously described by Jiang et al., 2002). Endothelial cells converted into mesenchymal stem-like cells by treatment with 10 ng/ml TGF-β2 for 48 hours were plated on fibronectin-coated polystyrene wells in the neurogenic medium.

Substance | effect on EndMT (stimulation) [1] | FSP-1, α-SMA, and N-cadherin levels (immunoblotting) [1] | VE-cadherin, CD31, and vWF levels (immunoblotting) [1] | EndMT-associated transcription factors Snail, Slug, ZEB-1, SIP-1, LEF-1, Twist (ELISA) [1] | FSP-1 and α-SMA levels (immunoblotting) [1] | TIE-2 expression levels (immunoblotting) [1] | VE-cadherin levels (immunoblotting) [1] | co-staining for endothelial marker TIE2 and mesenchymal marker FSP-1 (fluorescence microscopy or flow cytometry) [1] | expression of genes associated with EndMT (FSP-1, α-SMA, N-cadherin, fibronectin, Snail, Slug, ZEB-1, SIP-1, LEF-1, Twist), real-time quantitative PCR [1] | cell morphology (DIC imaging) [1] | expression of MyoD1, cardiac troponin I or neurofilament-L (immunoblotting) [2] | VE-cadherin, FSP-1, CD44, CD90 expression in clonal populations (multiplex ELISA) ([1]; three clonal populations of HUVEC and HCMEC, 48 h)
BMP4: Recombinant BMP4 protein (R&D Systems), ALK2 activating ligand, used at 10 ng/mL | stimulators of EndMT; also recorded: stimulate EndMT | increased | decreased | much higher | increased | remained unchanged; also recorded: remain constant | significantly decreased | staining for both | much higher | distinct change from cobblestone-like endothelial cell morphology to fibroblast-like morphology | – | –
TGF-β2: Recombinant TGF-β2 protein (R&D Systems), ALK2 activating ligand, used at 10 ng/mL | stimulators of EndMT; also recorded: stimulate EndMT | increased | decreased | much higher | increased | remained unchanged; also recorded: remain constant | significantly decreased | staining for both | much higher | distinct change from cobblestone-like endothelial cell morphology to fibroblast-like morphology | did express these markers | decreased expression of VE-cadherin and increased expression of FSP-1, CD44, and CD90
